From US7420083B2, “Substituted aryloximes” (Wyeth, priority 2003, dated 2008)

Columns and labels:
human PAI-1 = human PAI-1 (Homo sapiens, UniProt P05121); experiment: Assay for determining the IC50 of inhibition of PAI-1 (active PAI-1 bound to tPA-coated plate, 33B8 antibody detection); assay type: biochemical; settings: human PAI-1 50 ng/ml, pH 7.5
Protocol: Assay for determining the IC50 of inhibition of PAI-1. This assay is based upon the non-SDS dissociable interaction between tPA and active PAI-1. Assay plates are initially coated with human tPA (10 μg/ml). Test compounds are dissolved in DMSO at 10 mM, then diluted with physiologic buffer (pH 7.5) to a final concentration of 1-50 μM. The test compounds are incubated with human PAI-1 (50 ng/ml) for 15 minutes at room temperature. The tPA-coated plate is washed with a solution of 0.05% Tween 20 and 0.1% BSA, then the plate is blocked with a solution of 3% BSA. An aliquot of the test compound/PAI-1 solution is then added to the tPA-coated plate, incubated at room temperature for 1 hour, and washed. Active PAI-1 bound to the plate is assessed by adding an aliquot of a 1:1000 dilution of the 33B8 monoclonal antibody against human PAI-1, and incubating the plate at room temperature for 1 hour (Molecular Innovations, Royal Oak, Mich.). The plate is again washed, and a solution of goat anti-mouse IgG-alkaline phosphatase conjugate is added at a 1:50,000 dilution in goat serum. The plate is incubated 30 minutes at room temperature, washed, and a solution of alkaline phosphatase substrate is added. The plate is incubated 45 minutes at room temperature, and color development is determined at OD405 nm. The quantitation of active PAI-1 bound to tPA at varying concentrations of the test compound is used to determine the IC50. Results are analyzed using a logarithmic best-fit equation. The assay sensitivity is 5 ng/ml of human PAI-1 as determined from a standard curve ranging from 0-100 ng/ml.

Sequence of human PAI-1 (P05121 24-402): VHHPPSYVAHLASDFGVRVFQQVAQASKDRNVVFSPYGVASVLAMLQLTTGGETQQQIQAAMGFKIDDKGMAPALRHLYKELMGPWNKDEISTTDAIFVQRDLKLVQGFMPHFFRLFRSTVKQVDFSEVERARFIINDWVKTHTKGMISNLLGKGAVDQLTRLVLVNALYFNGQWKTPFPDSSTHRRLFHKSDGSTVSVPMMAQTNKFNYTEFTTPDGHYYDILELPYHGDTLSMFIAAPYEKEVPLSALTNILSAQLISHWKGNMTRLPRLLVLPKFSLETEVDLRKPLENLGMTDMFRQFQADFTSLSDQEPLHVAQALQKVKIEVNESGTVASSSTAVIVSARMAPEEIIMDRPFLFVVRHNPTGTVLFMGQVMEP

SMILES	melting point	IC50 (human PAI-1) [µM]
CC(C)(C)c1ccc(/C=N/OCCOc2ccc(C(=O)O)c(OC(=O)c3ccc(C(C)(C)C)cc3)c2)cc1 [Compound 10, 2-{[4-(tert-Butyl)benzoyl]oxy}-4-{2-[({(E)-[4-(tert-butyl)phenyl]methylidene}amino)oxy]ethoxy}benzoic Acid]	148.1 to 150.1 °C	17.8
C/C(=N\OCCOc1ccc(C(=O)O)c(OC(=O)c2ccc(-c3ccccc3)cc2)c1)c1ccccc1 [Compound 15, 2-[([1,1′-Biphenyl]-4-ylcarbonyl)oxy]-4-[2-({[(E)-1-phenylethylidene]amino}oxy)ethoxy]benzoic Acid]	157.5 to 159.1 °C	18.9
O=C(O)c1ccc(OCCCO/N=C/c2cc(C(F)(F)F)cc(C(F)(F)F)c2)cc1O [Compound 19, 4-{3-[({(E)-[3,5-Bis(trifluoromethyl)phenyl]methylidene}amino)oxy]propoxy}-2-hydroxybenzoic Acid]	181.9 to 183.4 °C	4.14
CC/C(=N\OCCCOc1ccc(C(=O)O)c(NC(=O)c2ccc(C(F)(F)F)cc2)c1)c1ccc(C(C)(C)C)cc1 [Compound 21, 4-[3-({[(1E)-1-(4-tert-butylphenyl)propylidene]amino}oxy)propoxy]-2-{[4-(trifluoromethyl)benzoyl]amino}benzoic Acid]	149.4 to 151 °C	16.3
O=C(Nc1cc(OCCCO/N=C/c2ccc(C(F)(F)F)cc2)ccc1C(=O)O)c1ccc(C(F)(F)F)cc1 [Compound 22, 2-{[4-(Trifluoromethyl)benzoyl]amino}-4-{3-[({(1E)-[4-(trifluoromethyl)phenyl]methylidene}amino)oxy]propoxy}benzoic Acid]	208.6 to 209.6 °C	4.14
CC(C)(C)c1ccc(/C=N/OCCCOc2ccc(C(=O)O)c(NC(=O)c3ccccc3C(F)(F)F)c2)cc1 [Compound 24, 4-[3-({[(1E)-(4-tert-Butylphenyl)methylidene]amino}oxy)propoxy]-2-{[2-(trifluoromethyl)benzoyl]amino}benzoic acid]	121.1 to 122 °C	17.5
O=C(O)c1ccc(OCCCO/N=C/c2ccc(C(F)(F)F)cc2)cc1NC(=O)c1ccccc1C(F)(F)F [Compound 25, 2-{[2-(Trifluoromethyl)benzoyl]amino}-4-{3-[({(1E)-[4-(trifluoromethyl)phenyl]methylidene}amino)oxy]propoxy}benzoic acid]	147.2 to 147.9 °C	26.8
CC(C)(C)c1ccc(/C=N/OCCCOc2ccc(C(=O)O)c(NC(=O)c3cc(C(F)(F)F)cc(C(F)(F)F)c3)c2)cc1 [Compound 27, 2-{[3,5-Bis(trifluoromethyl)benzoyl]amino}-4-[3-({[(1E)-(4-tert-butylphenyl)methylidene]amino}oxy)propoxy]benzoic Acid]	157.5 to 158.5 °C	15.7
O=C(Nc1cc(OCCCO/N=C/c2ccc(-c3ccccc3)cc2)ccc1C(=O)O)c1cc(C(F)(F)F)cc(C(F)(F)F)c1 [Compound 31, 4-[3-({[(1E)-1,1′-Biphenyl-4-ylmethylidene]amino}oxy)propoxy]-2-{[3,5-bis(trifluoromethyl)benzoyl]amino}benzoic Acid]	205 to 206 °C (dec.)	19.6
O=C(Nc1cc(OCCCO/N=C/c2ccc(C(F)(F)F)cc2)ccc1C(=O)O)c1cc(C(F)(F)F)cc(C(F)(F)F)c1 [Compound 32, 2-{[3,5-Bis(trifluoromethyl)benzoyl]amino}-4-{3-[({(1E)-[4-(trifluoromethyl)phenyl]methylidene}amino)oxy]propoxy}benzoic Acid]	218 to 219 °C (dec.)	15.8
CC(C)(C)c1ccc(/C=N/OCc2ccc(C(=O)O)c(Br)c2)cc1 [Compound 33, 2-Bromo-4-[({[(1E)-(4-tert-butylphenyl)methylidene]amino}oxy)methyl]benzoic Acid]	162 to 163 °C	13.8
